Measurements as given in patent US4264498A, “Process for the preparation of 1,3-disubstituted-2-azetidinones from triazines” (Fujisawa Pharmaceutical Co., Ltd., priority 1976, dated 1981).
Converted amounts (≈) assume the structure as drawn.

Assays:
Format in all cases: cell-based
Pseudomonas aeruginosa = assay: antimicrobial activity (MIC) against Pseudomonas aeruginosa
Bacillus subtilis = assay: antimicrobial activity (MIC) against Bacillus subtilis
Staphylococcus aureus = assay: antimicrobial activity (MIC) against Staphylococcus aureus

Structure (SMILES) | MIC (Pseudomonas aeruginosa) | MIC (Staphylococcus aureus) | further results
O=C(NC1CN(C(C(=O)O)c2ccco2)C1=O)C(=NO)c1ccccc1 (centres unmarked) [Compound H, 2-[3-(2-phenyl-2-hydroxyiminoacetamido)-2-oxo-1-azetidinyl]-2-(2-furyl)acetic acid] | 60 µg/mL (≈ 168 µM) | – | –
O=C(O)CN1CC(NC(=O)Cc2ccccc2)C1=O (centres unmarked) [Compound A, 2-(3-phenylacetamido-2-oxo-1-azetidinyl)acetic acid] | – | – | MIC (Bacillus subtilis): 250 µg/mL (≈ 953 µM)
O=C(NC1CN(C(CSc2ccccc2)C(=O)O)C1=O)C(=NO)c1ccccc1 (centres unmarked) [Compound D, 2-[3-(2-phenyl-2-hydroxyiminoacetamido)-2-oxo-1-azetidinyl]-3-phenylthiopropionic acid] | – | 250 µg/mL (≈ 605 µM) | –
O=C(NC1CN(C(C(=O)O)c2cccc3ccccc23)C1=O)C(=NO)c1ccccc1 (centres unmarked) [Compound E, 2-[3-(2-phenyl-2-hydroxyiminoacetamido)-2-oxo-1-azetidinyl]-2-(1-naphthyl)acetic acid] | – | 60 µg/mL (≈ 144 µM) | –

More lines, main results first:

MIC (Pseudomonas aeruginosa) | MIC (Staphylococcus aureus) | Structure (SMILES) | further results
4 µg/mL (≈ 8.16 µM) | – | NC(CCOc1ccc(C(=NO)C(=O)NC2CN(C(C(=O)O)c3cccs3)C2=O)cc1)C(=O)O (centres unmarked) [Compound G] | –
2.5 µg/mL (≈ 5 µM) | – | NC(CCOc1ccc(C(=NO)C(=O)NC2CN(C(C(=O)O)c3ccc(O)cc3)C2=O)cc1)C(=O)O (centres unmarked) [Compound C, 2-[3-[2-{4-(3-amino-3-carboxypropoxy)phenyl}-2-hydroxyiminoacetamido]-2-oxo-1-azetidinyl]-2-(4-hydroxyphenyl)acetic acid] | –
– | 250 µg/mL (≈ 629 µM) | O=C(NC1CN(C(Cc2ccc(O)cc2)C(=O)O)C1=O)C(=NO)c1ccccc1 (centres unmarked) [Compound F, 2-[3-(2-phenyl-2-hydroxyiminoacetamido)-2-oxo-1-azetidinyl]-3-(4-hydroxyphenyl)propionic acid] | –
4 µg/mL (≈ 8.26 µM) | – | NC(CCOc1ccc(C(=NO)C(=O)NC2CN(C(C(=O)O)c3ccccc3)C2=O)cc1)C(=O)O (centres unmarked) [Compound B, 2-[3-[2-{4-(3-amino-3-carboxypropoxy)phenyl}-2-hydroxyiminoacetamido]-2-oxo-1-azetidinyl]-2-phenylacetic acid] | –
